{"source": "paper PMC6135860", "about": "(Neuropsychopharmacology, 2018)", "key": {"[1]": {"target": "T1, humanized mouse PDE4D7 dimer S129D(PKA), Y271F(UCR2) (Mus musculus, UniProt Q01063, S129D/Y271F)", "T1 construct": "hexahistidine; Proteos Inc; host or cells: Baculovirus-infected Sf9 insect cells", "T1 sequence (Q01063 1-747 S129D/Y271F)": "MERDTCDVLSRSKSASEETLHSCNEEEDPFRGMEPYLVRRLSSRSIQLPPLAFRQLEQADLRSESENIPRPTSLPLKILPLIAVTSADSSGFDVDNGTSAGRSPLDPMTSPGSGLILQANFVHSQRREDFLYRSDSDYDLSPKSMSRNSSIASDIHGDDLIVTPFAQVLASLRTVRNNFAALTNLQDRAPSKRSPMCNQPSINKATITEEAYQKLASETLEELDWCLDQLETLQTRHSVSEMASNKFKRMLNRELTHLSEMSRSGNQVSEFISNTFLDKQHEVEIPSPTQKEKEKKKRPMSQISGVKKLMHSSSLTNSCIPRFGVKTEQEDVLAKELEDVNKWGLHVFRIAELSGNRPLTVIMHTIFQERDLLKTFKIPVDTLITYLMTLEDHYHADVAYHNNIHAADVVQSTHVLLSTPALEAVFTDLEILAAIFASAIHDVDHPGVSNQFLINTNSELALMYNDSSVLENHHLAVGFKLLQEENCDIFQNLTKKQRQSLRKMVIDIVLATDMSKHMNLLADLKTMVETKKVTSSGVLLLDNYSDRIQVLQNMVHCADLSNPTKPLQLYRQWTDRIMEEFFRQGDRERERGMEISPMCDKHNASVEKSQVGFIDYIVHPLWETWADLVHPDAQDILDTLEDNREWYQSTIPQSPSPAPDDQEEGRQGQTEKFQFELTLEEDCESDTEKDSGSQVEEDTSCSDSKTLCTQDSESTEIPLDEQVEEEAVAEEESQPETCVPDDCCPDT", "assay": "biochemical", "assay_type": "biochemical", "protocol": "Kinetic assay of cAMP hydrolysis by purified PDE4 enzymes is measured by coupling the formation of the PDE4 reaction product 5′-adenosine monophosphate (AMP) to the oxidation of reduced nicotinamide adenine dinucleotide (NADH). This is accomplished with three coupling enzymes (yeast myokinase, pyruvate kinase, and lactate dehydrogenase), and allows fluorescent determination of reaction rates [19]. To measure inhibition of PDE4 enzymes by test compounds, data were percent normalized relative to controls and are presented as percent inhibition.\nKinetic assay of cAMP hydrolysis by purified PDE4 enzymes is measured by coupling the formation of the PDE4 reaction product 5′-adenosine monophosphate (AMP) to the oxidation of reduced nicotinamide adenine dinucleotide (NADH). This is accomplished with three coupling enzymes (yeast myokinase, pyruvate kinase, and lactate dehydrogenase), and allows fluorescent determination of reaction rates.^19 Assays were performed in 96-well plates in a total volume of 200 μl/well. Compounds were dissolved in dimethylsulfoxide (DMSO) and added to plates in a volume of 10 μl followed by addition of 165 μl of assay mix. Plates were pre-incubated at 25 °C for 10 min. The enzyme reaction was initiated by the addition of 25 μl of cAMP followed by thorough mixing. […] Initial rates (slopes) were determined from linear portions of the progress curves. […]"}, "[2]": {"assay": "Pharmacokinetics and plasma exposure in mice"}, "[3]": {"target": "PDE4 binding sites in wild-type mouse brain membranes", "assay": "[3H]-rolipram radioligand binding to brain membranes", "settings": "wild-type", "protocol": "(§1) Mice were killed by decapitation, and the brains were immediately dissected on ice and homogenized in binding buffer using a Polytron homogenizer (Brinkman Instruments, Westbury, NY). The membrane fraction of the homogenate was obtained by centrifugation at 15,000 × g for 15 min, and resuspension of the pellet in the binding buffer.\n(§2) Mice were killed by decapitation, and the brains were immediately dissected on ice and homogenized in binding buffer (50 mM Tris-HCl, 5 mM MgCl2, pH 7.5) using a Polytron homogenizer (Brinkman Instruments, Westbury, NY). The membrane fraction of the homogenate was obtained by centrifugation at 15,000 g for 15 min, and resuspension of the pellet in the binding buffer^29.\n(§3) At the end of the incubation, reactions were stopped by adding 5 ml of the ice-cold binding buffer and rapid vacuum filtration through glass fiber filters that had been soaked in 0.3% polyethyleneimine. The filters were then washed twice with 5 ml of the ice-cold binding buffer, and discs of filter paper were collected for measurement of radioactivity by liquid scintillation counting."}, "[4]": {"target": "PDE4 binding sites in humanized PDE4D mouse brain membranes", "assay": "[3H]-rolipram radioligand binding to brain membranes", "protocol": "as §1, §2, §3"}, "[5]": {"tested_on": "wild-type mice", "assay": "Y-maze spontaneous alternation test", "assay_type": "in vivo, mouse", "settings": "oral gavage 1 h prior to test", "protocol": "(§4) The test consists of a single 5 min trial, in which the mouse was allowed to explore all three arms of the Y-maze [31]. Spontaneous alternation (%) was defined as consecutive entries in three different arms, divided by the number of possible alternations (total arm entries minus 2).\n(§5) Y-maze spontaneous alternation test. The Y-maze apparatus made of matt blue Plexiglas had three identical arms (L 40 cm, W 5 cm, H 15 cm) placed at 120° from each other. The test consisted of a single 5 min trial, in which the mouse was allowed to explore all three arms of the Y-maze. The start arm was varied between animals to avoid placement bias. Spontaneous Alternation (%) was defined as consecutive entries in 3 different arms, divided by the number of possible alternations (total arm entries minus 2). Mice with less than 8 arm entries during the 5-min trial were excluded from the analysis."}, "[6]": {"tested_on": "humanized PDE4D mice", "assay": "Y-maze spontaneous alternation test", "assay_type": "in vivo, mouse", "settings": "humanized PDE4D mice, oral gavage 1 h prior to test", "protocol": "as §4, §5"}, "[7]": {"tested_on": "pCREB, BDNF, pSynapsin, PSD95 in humanized PDE4D mice", "assay": "Immunoblot of hippocampal plasticity-related proteins", "assay_type": "in vivo, mouse", "description": "Hippocampal tissues were treated with lysis buffer for protein extraction. Then, 10–30 μg protein was separated using gel electrophoresis and transferred to polyvinylidene difluoride membranes, blocked with blocking buffer, and incubated with primary antibodies overnight at 4 °C. Labeled protein bands were detected using the enhanced chemiluminescence method and quantified using Quantity One 1-D Analysis Software.\nHippocampal tissues were lysed with RIPA buffer containing protease and phosphatase inhibitors and centrifuged at 13,000 rpm for 30 min at 4 °C. Aliquots of supernatant containing 10-30 μg protein were separated using 10% SDS-PAGE as described previously^66. Proteins from the gels were transferred to polyvinylidene difluoride membranes, blocked with blocking buffer (phosphate buffered saline containing 3% BSA and 0.1% sodium azide), and incubated with primary antibodies overnight at 4°C (phospho-CREB at Ser 133 (# ab32096, diluted 1:1000, abcam, Cambridge, MA), CREB (# sc-186, diluted 1:200, Santa Cruz Biotechnology, Dallas, Texas), β -actin (Catalog # ab8227, diluted 1:2000, abcam, Cambridge, MA)), Synapsin (#2312, diluted 1:1000, Cell Signaling Technology), Phospho-synapsin (#2311, diluted […], Cell Signaling Technology ), and PSD-95 (#2507, diluted 1:1000, Cell Signaling Technology, Danvers, MA). Labeled protein bands were detected using the enhanced chemiluminescence (ECL) method and quantified using Quantity One 1-D Analysis Software."}, "[8]": {"tested_on": "ICR mice", "assay": "Anxiolytic-like effect models (marble burying, elevated-plus maze)", "assay_type": "in vivo, mouse", "settings": "Supplementary Figure S4", "from_the_text": "Data are presented as mean ± S.E.M. (n = 10 male mice); * p < 0.05 and *** p < 0.001 (Student’s t-test) versus vehicle-treated group."}, "[9]": {"tested_on": "humanized PDE4D mice", "assay": "Novel object recognition, 24 h inter-trial interval", "assay_type": "in vivo, mouse", "protocol": "The novel object recognition test was performed as described elsewhere [32, 33]. Briefly, the task procedure consists of three phases: habituation phase on day 1 for 10 min, training (T1) phase on day 2 for 5 min, and testing (T2) phase on day 3 for 5 min. The duration each animal spent exploring the objects was recorded. Time spent exploring the identical objects in T1 was recorded as a1 and a2; time spent exploring the familiar and the novel objects in T2 was recorded as “a” and “b”, respectively. The following variables were calculated: e1 = a1 + a2, e2 = a + b, the relative discrimination index d2 = (b–a)/e2.\nNovel object recognition. Mice were handled for 3-5 min for 5 days in a row. The novel object recognition test was performed in a Plexiglas open field box (L30 cm, W50 cm, H40 cm) as described elsewhere^64,65. Briefly, the task procedure consists of three phases: habituation, training (T1), and testing (T2). In the habituation phase (day 1), each animal is allowed to freely explore the apparatus for 10 min; then the animal is returned to its home cage. During the training phase (day 2), a single animal is placed in the center of the open field containing two identical objects located on the diagonal of the field, and allowed to explore for 5 min. After a retention interval after T1 of 24 h (long-term recall) or 1 h (scopolamine-impairment model), the animal was subjected to the T2 testing phase for 5 min, during which one familiar object and one novel object were presented. The arena and objects were thoroughly wiped with 70% ethanol after each trial to avoid the presence of any olfactory cues. The animals were considered to be exploring the object when directing their nose to the object at a distance of no more than 2 cm and/or touching or sniffing the object. The duration each animal spent exploring the objects was recorded. Time spent exploring the identical objects in T1 was recorded as a1 and a2; time spent exploring the familiar and the novel objects in T2 was recorded as ‘a’ and ‘b’, respectively. The following variables were calculated: e1 = a1 + a2, e2 = a + b, the relative discrimination index d2 = (b – a)/e2."}, "[10]": {"tested_on": "humanized PDE4D mice"}, "[11]": {"settings": "repeated oral dosing 14 days, hPDE4D mice"}}, "note": "Where two headings read alike, the source gives them in different places."}
{"smiles": "O=C(O)Cc1ccc(Cc2cc(-c3cccc(Cl)c3)nc(C(F)(F)F)c2)cc1", "note": "[BPN14770]", "values": [{"measurement": "increase in potency by mutation of mouse UCR2 tyrosine 271 to phenylalanine", "setting": "[1]; Y271F versus wild-type mouse PDE4D7", "result": 46, "unit": "fold"}, {"measurement": "IC50", "setting": "[1]; mouse PDE4D7 dimer, S129D, Y271F (humanized UCR2)", "result": "2.9 ± 0.3", "unit": "nM"}, {"measurement": "plasma exposure at the NOAEL", "setting": "[2]; 1 mg/kg PO, 1 h post dose, data not shown", "result": "1305 ± 113", "unit": "ng/mL"}, {"measurement": "Kp", "setting": "[2]; C57bl/6, mouse, brain and plasma", "result": "0.4 to 0.42"}, {"measurement": "bioavailability", "setting": "[2]; C57bl/6, mouse, in vivo, po", "result": "70 to 80", "unit": "%"}, {"measurement": "half-life", "setting": "[2]; C57bl/6, mouse, plasma and brain", "result": "8 to 10", "unit": "h"}, {"measurement": "Ki", "setting": "[3]; inhibition of 2 nM [3H]-rolipram binding, read-out: One-site Ki", "result": "124 ± 14.1", "unit": "nM"}, {"measurement": "Ki", "setting": "[3]; inhibition of [3H]-rolipram binding, read-out: Two-site Ki1", "result": "79.7 ± 17.1", "unit": "nM"}, {"measurement": "Ki", "setting": "[3]; inhibition of [3H]-rolipram binding, read-out: Two-site Ki2", "result": "622 ± 110", "unit": "nM"}, {"measurement": "Ki", "setting": "[4]; hPDE4D, inhibition of [3H]-rolipram binding, read-out: Two-site Ki1", "result": "2.8 ± 1.08", "unit": "nM"}, {"measurement": "Ki", "setting": "[4]; hPDE4D, inhibition of [3H]-rolipram binding, read-out: Two-site Ki2", "result": "186 ± 19", "unit": "nM"}, {"measurement": "Ki", "setting": "[4]; read-out: One-site Ki", "result": "82.1 ± 6.03", "unit": "nM"}, {"measurement": "MED for improved % alternation in Y-maze", "setting": "[5]", "result": 1, "unit": "mg/kg"}, {"measurement": "MED for improved % alternation in Y-maze", "setting": "[6]", "result": 0.01, "unit": "mg/kg"}, {"measurement": "hippocampal CREB phosphorylation or BDNF expression after single acute dose", "setting": "[7]; 1 h after dosing, data not shown", "result": "no change"}, {"measurement": "synapsin phosphorylation in prefrontal cortex and cortex", "setting": "[7]; hPDE4D mice, repeated dosing, data not shown", "result": "increased phosphorylation of synapsin was also observed"}, {"measurement": "increase in hippocampal PSD95", "setting": "[7]; repeated dosing, 0.03 mg/kg", "result": 1.4, "unit": "fold"}, {"measurement": "increase in hippocampal phosphorylation of synapsin", "setting": "[7]; repeated dosing, 0.03 mg/kg", "result": 1.5, "unit": "fold"}, {"measurement": "elevation of hippocampal BDNF", "setting": "[7]; [11]", "result": 2.1, "unit": "fold"}, {"measurement": "elevation of hippocampal CREB phosphorylation", "setting": "[7]; [11]", "result": 2.3, "unit": "fold"}, {"measurement": "anxiolytic-like effect", "setting": "[8]", "result": "ineffective"}, {"measurement": "dose range for effect on neurochemical and cognitive biomarkers", "setting": "[9]; humanized PDE4D mice", "result": "0.01–0.03 mg/kg PO"}, {"measurement": "greater potency for improving memory in humanized vs wild-type mice", "setting": "[9]; memory tests overall", "result": 100, "unit": "fold"}, {"measurement": "projected tolerability in non-rodent species, plasma", "setting": "[10]; from surrogate measure of emesis", "result": "greater than 1300 ng/ml"}, {"measurement": "window in exposure between beneficial doses and plasma exposure predicted to cause emesis", "setting": "[10]; humanized PDE4D mice", "result": "40- to 100 fold"}, {"measurement": "NOAEL (no observed adverse effect level), ketamine/xylazine test", "setting": "[10]; mouse, in vivo", "result": 1, "unit": "mg/kg PO"}]}
